Test results reported in patent US20260125360A1, “HERBICIDAL IMIDAZOLE COMPOUNDS” (SYNGENTA CROP PROTECTION AG, priority 2022, published 2026).

Experiments:
Format in all cases: in vivo
Details in all cases: 250 g/ha, evaluated after 13 days
[1] = tested on: Amaranthus palmeri (AMAPA); assay: Post-emergence herbicide glasshouse test
In short: (§1)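 Spray: acetone/water 50:50 + 0.5% Tween 20, 250 g/ha unless stated; 1 d (pre) or 8 d (post) after sowing. Glasshouse 24/16° C, 14 h light, 65% RH, watered twice daily. Read-out at 13 d: % damage binned 1–5 (5=81-100%, 1=0-20%).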

[2] = tested on: Amaranthus retoflexus (AMARE); assay: Post-emergence herbicide glasshouse test
In short: as §1

[3] = tested on: Echinochloa crus-galli (ECHCG); assay: Post-emergence herbicide glasshouse test
In short: as §1

[4] = tested on: Ipomoea hederacea (IPOHE); assay: Post-emergence herbicide glasshouse test
In short: as §1

[5] = tested on: Amaranthus palmeri (AMAPA); assay: Pre-emergence herbicide glasshouse test
In short: as §1

[6] = tested on: Amaranthus retoflexus (AMARE); assay: Pre-emergence herbicide glasshouse test
In short: as §1

[7] = tested on: Echinochloa crus-galli (ECHCG); assay: Pre-emergence herbicide glasshouse test
In short: as §1

[8] = tested on: Ipomoea hederacea (IPOHE); assay: Pre-emergence herbicide glasshouse test
In short: as §1

Fc1cc(-c2nc(C(F)(F)F)cn2Cc2ccc(Cl)s2)cnc1Cl [Compound 1.174]
percentage damage caused to the plant, AMAPA (five-point scale) [1]: 5 (5=81-100%) | percentage damage caused to the plant, AMARE (five-point scale) [2]: 5 (5=81-100%) | percentage damage caused to the plant, ECHCG (five-point scale) [3]: 1 (1=0-20%) | percentage damage caused to the plant, IPOHE (five-point scale) [4]: 2 (2=21-40%) | percentage damage caused to the plant, AMAPA (five-point scale) [5]: 5 (5=81-100%) | percentage damage caused to the plant, AMARE (five-point scale) [6]: 5 (5=81-100%) | percentage damage caused to the plant, ECHCG (five-point scale) [7]: 1 (1=0-20%) | percentage damage caused to the plant, IPOHE (five-point scale) [8]: 1 (1=0-20%)

Cn1cnc(Cn2cc(C(F)(F)F)nc2-c2ccc(Cl)nc2)n1 [Compound 1.087]
percentage damage caused to the plant, AMAPA (five-point scale) [1]: 5 (5=81-100%) | percentage damage caused to the plant, AMARE (five-point scale) [2]: 5 (5=81-100%) | percentage damage caused to the plant, ECHCG (five-point scale) [3]: 5 (5=81-100%) | percentage damage caused to the plant, IPOHE (five-point scale) [4]: 5 (5=81-100%) | percentage damage caused to the plant, AMAPA (five-point scale) [5]: 5 (5=81-100%) | percentage damage caused to the plant, AMARE (five-point scale) [6]: 5 (5=81-100%) | percentage damage caused to the plant, ECHCG (five-point scale) [7]: 5 (5=81-100%) | percentage damage caused to the plant, IPOHE (five-point scale) [8]: 5 (5=81-100%)

Cn1cnc(Cn2cc(C(F)(F)F)nc2-c2cnc(F)c(Cl)c2)n1 [Compound 1.165]
percentage damage caused to the plant, AMAPA (five-point scale) [1]: 5 (5=81-100%) | percentage damage caused to the plant, AMARE (five-point scale) [2]: 5 (5=81-100%) | percentage damage caused to the plant, ECHCG (five-point scale) [3]: 5 (5=81-100%) | percentage damage caused to the plant, IPOHE (five-point scale) [4]: 5 (5=81-100%) | percentage damage caused to the plant, AMAPA (five-point scale) [5]: 5 (5=81-100%) | percentage damage caused to the plant, AMARE (five-point scale) [6]: 5 (5=81-100%) | percentage damage caused to the plant, ECHCG (five-point scale) [7]: 5 (5=81-100%) | percentage damage caused to the plant, IPOHE (five-point scale) [8]: 5 (5=81-100%)

Cc1noc(Cn2cc(C(F)(F)F)nc2-c2ccc(Cl)nc2)n1 [Compound 1.101]
percentage damage caused to the plant, AMAPA (five-point scale) [1]: 4 (4=61-80%) | percentage damage caused to the plant, AMARE (five-point scale) [2]: 4 (4=61-80%) | percentage damage caused to the plant, ECHCG (five-point scale) [3]: 1 (1=0-20%) | percentage damage caused to the plant, IPOHE (five-point scale) [4]: 5 (5=81-100%) | percentage damage caused to the plant, AMAPA (five-point scale) [5]: 5 (5=81-100%) | percentage damage caused to the plant, AMARE (five-point scale) [6]: 5 (5=81-100%) | percentage damage caused to the plant, ECHCG (five-point scale) [7]: 1 (1=0-20%) | percentage damage caused to the plant, IPOHE (five-point scale) [8]: 5 (5=81-100%)

Cc1nnc(Cn2cc(C(F)(F)F)nc2-c2ccc(F)c(F)c2)s1 [Compound 1.021]
percentage damage caused to the plant, AMAPA (five-point scale) [1]: 5 (5=81-100%) | percentage damage caused to the plant, AMARE (five-point scale) [2]: 5 (5=81-100%) | percentage damage caused to the plant, ECHCG (five-point scale) [3]: 4 (4=61-80%) | percentage damage caused to the plant, IPOHE (five-point scale) [4]: 4 (4=61-80%) | percentage damage caused to the plant, AMAPA (five-point scale) [5]: 5 (5=81-100%) | percentage damage caused to the plant, AMARE (five-point scale) [6]: 5 (5=81-100%) | percentage damage caused to the plant, ECHCG (five-point scale) [7]: 5 (5=81-100%) | percentage damage caused to the plant, IPOHE (five-point scale) [8]: 5 (5=81-100%)

CC(C)c1nnc(Cn2cc(C(F)(F)F)nc2-c2ccc(Cl)nc2)o1 [Compound 1.131]
percentage damage caused to the plant, AMAPA (five-point scale) [1]: 1 (1=0-20%) | percentage damage caused to the plant, AMARE (five-point scale) [2]: 1 (1=0-20%) | percentage damage caused to the plant, ECHCG (five-point scale) [3]: 1 (1=0-20%) | percentage damage caused to the plant, IPOHE (five-point scale) [4]: 1 (1=0-20%) | percentage damage caused to the plant, AMAPA (five-point scale) [5]: 1 (1=0-20%) | percentage damage caused to the plant, AMARE (five-point scale) [6]: 5 (5=81-100%) | percentage damage caused to the plant, ECHCG (five-point scale) [7]: 1 (1=0-20%) | percentage damage caused to the plant, IPOHE (five-point scale) [8]: 1 (1=0-20%)

Cc1nc(Cn2cc(C(F)(F)F)nc2-c2ccc(Cl)nc2)no1 [Compound 1.097]
percentage damage caused to the plant, AMAPA (five-point scale) [1]: 5 (5=81-100%) | percentage damage caused to the plant, AMARE (five-point scale) [2]: 5 (5=81-100%) | percentage damage caused to the plant, ECHCG (five-point scale) [3]: 5 (5=81-100%) | percentage damage caused to the plant, IPOHE (five-point scale) [4]: 5 (5=81-100%) | percentage damage caused to the plant, AMAPA (five-point scale) [5]: 5 (5=81-100%) | percentage damage caused to the plant, AMARE (five-point scale) [6]: 5 (5=81-100%) | percentage damage caused to the plant, ECHCG (five-point scale) [7]: 5 (5=81-100%) | percentage damage caused to the plant, IPOHE (five-point scale) [8]: 5 (5=81-100%)

FC(F)(F)c1cn(Cc2cc(C3CC3)no2)c(-c2ccc(Cl)nc2)n1 [Compound 1.134]
percentage damage caused to the plant, AMAPA (five-point scale) [1]: 5 (5=81-100%) | percentage damage caused to the plant, AMARE (five-point scale) [2]: 5 (5=81-100%) | percentage damage caused to the plant, ECHCG (five-point scale) [3]: 2 (2=21-40%) | percentage damage caused to the plant, IPOHE (five-point scale) [4]: 4 (4=61-80%) | percentage damage caused to the plant, AMAPA (five-point scale) [5]: 5 (5=81-100%) | percentage damage caused to the plant, AMARE (five-point scale) [6]: 5 (5=81-100%) | percentage damage caused to the plant, ECHCG (five-point scale) [7]: 3 (3=41-60%) | percentage damage caused to the plant, IPOHE (five-point scale) [8]: 4 (4=61-80%)

CCn1ccc(Cn2cc(C(F)(F)F)nc2-c2ccc(Cl)nc2)n1 [Compound 1.063]
percentage damage caused to the plant, AMAPA (five-point scale) [1]: 5 (5=81-100%) | percentage damage caused to the plant, AMARE (five-point scale) [2]: 5 (5=81-100%) | percentage damage caused to the plant, ECHCG (five-point scale) [3]: 1 (1=0-20%) | percentage damage caused to the plant, IPOHE (five-point scale) [4]: 3 (3=41-60%) | percentage damage caused to the plant, AMAPA (five-point scale) [5]: 5 (5=81-100%) | percentage damage caused to the plant, AMARE (five-point scale) [6]: 5 (5=81-100%) | percentage damage caused to the plant, ECHCG (five-point scale) [7]: 1 (1=0-20%) | percentage damage caused to the plant, IPOHE (five-point scale) [8]: 5 (5=81-100%)

Cc1noc(C)c1Cn1cc(C(F)(F)F)nc1-c1ccc(C(F)(F)F)cc1 [Compound 1.005]
percentage damage caused to the plant, AMAPA (five-point scale) [1]: 1 (1=0-20%) | percentage damage caused to the plant, AMARE (five-point scale) [2]: 1 (1=0-20%) | percentage damage caused to the plant, ECHCG (five-point scale) [3]: 1 (1=0-20%) | percentage damage caused to the plant, IPOHE (five-point scale) [4]: 1 (1=0-20%) | percentage damage caused to the plant, AMAPA (five-point scale) [5]: 5 (5=81-100%) | percentage damage caused to the plant, AMARE (five-point scale) [6]: 5 (5=81-100%) | percentage damage caused to the plant, ECHCG (five-point scale) [7]: 1 (1=0-20%) | percentage damage caused to the plant, IPOHE (five-point scale) [8]: 1 (1=0-20%)

CCc1noc(Cn2cc(C(F)(F)F)nc2-c2ccc(Cl)nc2)n1 [Compound 1.098]
percentage damage caused to the plant, AMAPA (five-point scale) [1]: 4 (4=61-80%) | percentage damage caused to the plant, AMARE (five-point scale) [2]: 4 (4=61-80%) | percentage damage caused to the plant, ECHCG (five-point scale) [3]: 1 (1=0-20%) | percentage damage caused to the plant, IPOHE (five-point scale) [4]: 3 (3=41-60%) | percentage damage caused to the plant, AMAPA (five-point scale) [5]: 5 (5=81-100%) | percentage damage caused to the plant, AMARE (five-point scale) [6]: 5 (5=81-100%) | percentage damage caused to the plant, ECHCG (five-point scale) [7]: 1 (1=0-20%) | percentage damage caused to the plant, IPOHE (five-point scale) [8]: 4 (4=61-80%)

Cc1noc(Cn2cc(C(F)(F)F)nc2-c2ccc(F)c(F)c2)n1 [Compound 1.169]
percentage damage caused to the plant, AMAPA (five-point scale) [1]: 5 (5=81-100%) | percentage damage caused to the plant, AMARE (five-point scale) [2]: 5 (5=81-100%) | percentage damage caused to the plant, ECHCG (five-point scale) [3]: 3 (3=41-60%) | percentage damage caused to the plant, IPOHE (five-point scale) [4]: 3 (3=41-60%) | percentage damage caused to the plant, AMAPA (five-point scale) [5]: 5 (5=81-100%) | percentage damage caused to the plant, AMARE (five-point scale) [6]: 5 (5=81-100%) | percentage damage caused to the plant, ECHCG (five-point scale) [7]: 4 (4=61-80%) | percentage damage caused to the plant, IPOHE (five-point scale) [8]: 5 (5=81-100%)

Cc1cc(Cn2cc(C(F)F)nc2-c2cnc(Cl)c(F)c2)no1 [Compound 1.024]
percentage damage caused to the plant, AMAPA (five-point scale) [1]: 5 (5=81-100%) | percentage damage caused to the plant, AMARE (five-point scale) [2]: 5 (5=81-100%) | percentage damage caused to the plant, ECHCG (five-point scale) [3]: 2 (2=21-40%) | percentage damage caused to the plant, IPOHE (five-point scale) [4]: 4 (4=61-80%) | percentage damage caused to the plant, AMAPA (five-point scale) [5]: 5 (5=81-100%) | percentage damage caused to the plant, AMARE (five-point scale) [6]: 5 (5=81-100%) | percentage damage caused to the plant, ECHCG (five-point scale) [7]: 4 (4=61-80%) | percentage damage caused to the plant, IPOHE (five-point scale) [8]: 5 (5=81-100%)

Cc1cc(Cn2cc(C(F)(F)F)nc2-c2ccc(F)c(F)c2)ns1 [Compound 1.162]
percentage damage caused to the plant, AMAPA (five-point scale) [1]: 5 (5=81-100%) | percentage damage caused to the plant, AMARE (five-point scale) [2]: 5 (5=81-100%) | percentage damage caused to the plant, ECHCG (five-point scale) [3]: 5 (5=81-100%) | percentage damage caused to the plant, IPOHE (five-point scale) [4]: 4 (4=61-80%) | percentage damage caused to the plant, AMAPA (five-point scale) [5]: 5 (5=81-100%) | percentage damage caused to the plant, AMARE (five-point scale) [6]: 5 (5=81-100%) | percentage damage caused to the plant, ECHCG (five-point scale) [7]: 5 (5=81-100%) | percentage damage caused to the plant, IPOHE (five-point scale) [8]: 3 (3=41-60%)
